Test results published in patent US20080249168A1, “Pharmaceutical composition for gout” (priority 2007, published 2008).
Entries after “also recorded” stand apart in the source; their conditions may differ.

Tests used:
[1] = system: normal kunmin mice; assay: Influence of L-carnitine on serum uric acid level in normal Kunmin mouse; format: in vivo; details: 300 mg/kg
Method: (§1) Fifty healthy kunmin Mouse (weight of 18-22 grams, male) were randomly divided into 5 groups, which are positive control group, negative control group, and small (250 mg/kg), medium (500 mg/kg) and large (1000 mg/kg) doses of 1-carnitine groups. The solvent for all solutions is 0.5% of sodium carboxymethyl cellulose (CMC—Na), with peritoneal injection in dose of 0.1 ml/10 g for all animals. For […], same dose of 0.5% of CMC—Na solution was injected. One hour after injection of inducer, blood samples were taken from eyeball, stet at room temperature for about one hour, centrifugation at 4000 r.p.m for 10 mins, supernatant was transferred to fresh tube for biochemical test of serum uric acid. Thirty healthy kunmin mouse (weight of 18-22 grams, male) were randomly divided into 3 groups, which are positive control group, negative control group, and 1-carnitine (300 mg/k) group. Others method was same as example 1.

[2] = system: hyperuricemia model of Kunmin mouse; assay: Influence of l-carnitine on serum uric acid in hyperuricemia model of Kunmin mouse (oteracil potassium as inducer); format: in vivo; details: for serum uric acid value (X ± S): peritoneal injection, blood one hour after injection of inducer, P < 0.01 vs negative control
Method: as §1, with “acid.” for “acid. Thirty healthy kunmin mouse (weight of 18-22 grams, male) were randomly divided into 3 groups, which are positive control group, negative control group, and 1-carnitine (300 mg/k) group. Others method was same as example 1.”
The efficacy of the composition described in the present invention is clearly shown in Example 1, where uricase inhibitor oteracil potassium is used as model inducer to induce hyperuricemia in Kunmin mouse, and administered Levocarnitine to observe novel pharmacological effect on the model.

C[N+](C)(C)C[C@H](O)CC(=O)[O-] [L-Carnitine, Levocarnitine (L-carnitine)]
effect on uric acid level (in words) [1]: no effect on uric acid level | serum uric acid value (X ± S) ([1]; P > 0.05 vs normal positive control group): 76.9 ± 30.77 | effect on uric acid level (in words) ([1]; listed as 1-carnitine): not affecting uric acid level | serum uric acid value (X ± S) ([2]; 250 mg/kg (small dose)): 140.6 ± 51.55 | serum uric acid value (X ± S) ([2]; 500 mg/kg (medium dose)): 130.1 ± 34.8 | serum uric acid value (X ± S) ([2]; 1000 mg/kg (large dose)): 131.7 ± 24.79 | effect on serum uric acid level (in words) ([2]; dose 250-1000 mg/kg): reduced serum uric acid level of model animal group significantly; also recorded: reduced the uric acid level significantly
